In US10130677B2, “Antimicrobial peptide and uses thereof” (priority 2013, dated 2018):
Read-outs that look alike come from different tables or passages of the source.

System: S. aureus JAR060131
Type: cell-based, Staphylococcus aureus
Settings: for IC99.9: approx. 1 × 10^6 CFU/ml S. aureus JAR, within 2 hrs (Table 2)
Protocol: Polypeptides of the invention preferably have an in vitro IC99.9 of at most 150 μM after 2 hours at 37° C. against at least one microbial species in the presence of 50% plasma. Said IC99.9 is preferably determined in accordance with a method for determining the antimicrobial activity as described herein in the Examples. Said method described in the Examples for determining antimicrobial activity of microbes not associated with biofilm involves the mixing of 50 microL of a solution of a polypeptide in PBS with addition of human plasma at a final concentration of 50% and 20 microL of bacterial suspension with 5×10^6 CFU per mL of PBS in a well. After incubation of this mixture for 2 hours at 37° C. under shaking conditions, a sample is used for assessment of the bacterial counts. The lowest peptide concentration at which there is 99.9% of bacteria killed, is called the inhibitory concentration (IC) 99.9. Bacterial counts can be determined by manual CFU counting. For determining antibacterial activity for instance 1×10^6 CFU/ml bacteria are used, for determining antifungal activity for instance 1×10^5 cells/ml are used.
Peptides were incubated with 1×10^6 CFU/ml of a mid-logarithmic culture of S. aureus JAR060131, methicillin resistant S. aureus (MRSA) LUH14616, Staphylococcus epidermidis RP62a, and Pseudomonas aeruginosa PAO1 in PBS without or with addition of pooled human plasma (Sanquin, Amsterdam, the Netherlands) at a final concentration of 50%. Antimicrobial activity is expressed as the 99.9% lethal concentration (LC99.9), i.e., the lowest peptide concentration which killed ≥99.9% of bacteria after 2 hours of incubation at 37° C. under shaking conditions.

“Ac-LKRLYKALAKLIKRLYRYLKKPVR-NH2 [Peptide P252, J LKRLYKALAKLIKRLYRYLKKPVR B]” showed an LC99.9 (50% plasma, experiment 2013.01.15 (Table 6)) of 51.2 µM, an LC99.9 (50% plasma, experiment 2013.01.18 (Table 6)) of 12.8 µM and an LC99.9 (PBS, experiment 2013.01.15 (Table 6)) of 1.6 µM. The LC99.9 (PBS, experiment 2013.01.18 (Table 6)) was 0.8 µM.

“J LKKLWKRLARLLKRFIRQLRRPVR B (Ac-LKKLWKRLARLLKRFIRQLRRPVR-NH2) [Peptide P147]” was tested, and the IC99.9 (50% plasma) was 51.2 µM and the IC99.9 (PBS) was 1.6 µM.

“J LKKLWKRLARLWKRIIRQLKKPVR B (Ac-LKKLWKRLARLWKRIIRQLKKPVR-NH2) [Peptide P160]” gave an IC99.9 (50% plasma) of 25.6 µM and an IC99.9 (PBS) of 1.6 µM.

In the case of “J LKKLWKRVFRIWKRIFRYLKRPVR B (Ac-LKKLWKRVFRIWKRIFRYLKRPVR-NH2) [Peptide P139]”, the IC99.9 (50% plasma) is reported as 51.2 µM and the IC99.9 (PBS) is reported as 0.8 µM.

“J LKKLYKRLFKILKRILRYLRKPVR B (Ac-LKKLYKRLFKILKRILRYLRKPVR-NH2) [Peptide P146]” was tested, and the IC99.9 (50% plasma) was 51.2 µM and the IC99.9 (PBS) was 1.6 µM.

With “J LKKLYKRLFKLWKRLYRYLKKPVR B (Ac-LKKLYKRLFKLWKRLYRYLKKPVR-NH2) [Peptide P151]” the IC99.9 (50% plasma) was 25.6 µM and the IC99.9 (PBS) was 1.6 µM.

In the case of “J LKKLYKRVAKIWKRWIRYLKKPVR B (Ac-LKKLYKRVAKIWKRWIRYLKKPVR-NH2) [Peptide P144]”, the “fold increase of activity in the presence of plasma as compared to OP-145” value (“fold increase of activity” for short) (50% plasma) is reported as 8 fold, the IC99.9 (50% plasma) is reported as 25.6 µM and the IC99.9 (PBS) is reported as 1.6 µM.

“J LKKVWKRVARLIKRWFRYLRRPVR B [Peptide P150]” was tested, and the IC99.9 (50% plasma) was 25.6 µM and the IC99.9 (PBS) was 1.6 µM.

With “J LKKVWKRVFRILKRFLRYLKRPVR B (Ac-LKKVWKRVFRILKRFLRYLKRPVR-NH2) [Peptide P157]” the IC99.9 (50% plasma) was 51.2 µM and the IC99.9 (PBS) was 0.8 µM.

With “J LKKVYKRLARLLKRYIRYLRRPVR B (Ac-LKKVYKRLARLLKRYIRYLRRPVR-NH2) [Peptide P149]” the “fold increase of activity” value (50% plasma) was 2 fold, the IC99.9 (50% plasma) was 102.4 µM and the IC99.9 (PBS) was 1.6 µM.

In the case of “J LKKVYKRVARLIKRLFRYLKRPVR B [Peptide P155]”, the “fold increase of activity” value (50% plasma) is reported as 2 fold, the IC99.9 (50% plasma) is reported as 102.4 µM and the IC99.9 (PBS) is reported as 1.6 µM.

In the case of “J LKRLWKRLFKILKRYYRYLRRPVR B (Ac-LKRLWKRLFKILKRYYRYLRRPVR-NH2) [Peptide P162]”, the IC99.9 (50% plasma) is reported as 25.6 µM and the IC99.9 (PBS) is reported as 1.6 µM.

“J LRKLWKRLAKIIKRLYRYLRRPVR B (Ac-LRKLWKRLAKIIKRLYRYLRRPVR-NH2) [Peptide P154]” showed an IC99.9 (50% plasma) of 51.2 µM and an IC99.9 (PBS) of 1.6 µM.

Work on “J LRKLWKRVVKIWKRYLRQLRRPVR B (Ac-LRKLWKRVVKIWKRYLRQLRRPVR-NH2) [Peptide P153]” yielded an IC99.9 (50% plasma) of 25.6 µM and an IC99.9 (PBS) of 1.6 µM.

Work on “J LRRLWKRLVKILKRWFRYLRRPVR B (Ac-LRRLWKRLVKILKRWFRYLRRPVR-NH2) [Peptide P142]” yielded an IC99.9 (50% plasma) of 51.2 µM and an IC99.9 (PBS) of 0.8 µM.

Work on “J LRRLWKRLVKLWKRFFRYLKKPVR B [Peptide P156]” yielded an IC99.9 (50% plasma) of 51.2 µM and an IC99.9 (PBS) of 1.6 µM.

“J LRRLWKRLVRIIKRIYRQLKRPVR B (Ac-LRRLWKRLVRIIKRIYRQLKRPVR-NH2) [Peptide P140]” was tested, and the IC99.9 (50% plasma) was 25.6 µM and the IC99.9 (PBS) was 1.6 µM.

“J LRRLWKRVFKIIKRLFRQLKKPVR B (Ac-LRRLWKRVFKIIKRLFRQLKKPVR-NH2) [Peptide P163]” showed an IC99.9 (50% plasma) of 25.6 µM and an IC99.9 (PBS) of 0.8 µM.

Work on “J LRRLYKRVFRLLKRWWRYLKRPVR B (Ac-LRRLYKRVFRLLKRWWRYLKRPVR-NH2) [Peptide P141]” yielded an IC99.9 (50% plasma) of 25.6 µM and an IC99.9 (PBS) of 0.8 µM.

“J LRRLYKRVVKLWKRLFRQLRRPVR B (Ac-LRRLYKRVVKLWKRLFRQLRRPVR-NH2) [Peptide P143]” was tested, and the “fold increase of activity” value (50% plasma) was 4 fold, the IC99.9 (50% plasma) was 51.2 µM and the IC99.9 (PBS) was 1.6 µM.

With “J LRRVWKRVARIIKRLYRYLKRPVR B (Ac-LRRVWKRVARIIKRLYRYLKRPVR-NH2) [Peptide P161]” the IC99.9 (50% plasma) was 25.6 µM and the IC99.9 (PBS) was 1.6 µM.

“J LRRVYKRLARLIKRYLRQLKKPVR B (Ac-LRRVYKRLARLIKRYLRQLKKPVR-NH2) [Peptide P152]” gave an IC99.9 (50% plasma) of 25.6 µM and an IC99.9 (PBS) of 1.6 µM.

“J LRRVYKRLFRLWKRIIRQLRRPVR B (Ac-LRRVYKRLFRLWKRIIRQLRRPVR-NH2) [Peptide P158]” showed an IC99.9 (50% plasma) of 25.6 µM and an IC99.9 (PBS) of 1.6 µM.
